Data published in patent publication US20220218725A1, “METHODS AND MATERIALS FOR TREATING CANCER” (Mayo Foundation for Medical Education and Research, priority 2019, published 2022).

Tests used:
Type in all cases: cell-based
[1] = test system: SR-786 cells; assay: Cell viability, Annexin V/PI assay; conditions: SR-786 (TCL); 48 hours; KPT-330 0.1-1.0 μM, CS 1-3 mM, single agent or combination
Procedure: (§1) Cell lines were purchased from the cell line repositories ATCC (Manassas, Va.) or DSMZ (Braunschweig, Germany). These included MCL cell lines: JeKo-1, Mino; TCL cell lines: Karpas-299, SR-786; DLBCL cell lines: OCI-Ly1 (LY-1), OCI-Ly3 (LY-3), OCI-Ly19 (LY-19), SU-DHL-6 (DHL-6); MM cell lines: RPMI, U266, OPM2, Xgl, KMS2; ALL cell lines: CRL-1783; non-small cell lung cancer: NCI-H460, A549, HCC827; small cell lung cancer: H1048; sarcoma: Fuji, SW872. Cell lines were cultured according to instruction.
(§2) KPT-330 purchased from Selleckchem (cat no: S7252) was dissolved in DMSO while CS (Santa Cruz, Calif.S 2016-36-6), sodium salicylate (Sigma-Aldrich, cat no: S3007), acetyl salicylate (Sigma-Aldrich, cat no: CAS 50-78-2) was diluted in PBS. Ketorolac (Sigma-Aldrich, cat no: 1356665), Bortezomib (Selleckchem, cat no: S1013), gemcitabine (Sigma-Aldrich, cat no: G6423), Leptomycin-B (Sigma-Aldrich, cat no: L2913-2X) and KPT-185 (Selleckchem, cat no: S7125) were dissolved in DMSO. The concentration range of KPT-330 was 0.05-1.0 μM while CS was 1-3 mM were used for ex vivo treatment and incubation time ranged from 24 hours to 72 hours. For the PARP inhibitor assay, olaparib 10 μM (SelleckChem, cat no: AZD2281 Ku-0059436) was used.
(§3) The viability assessment for cell lines and primary patients samples were conducted with the Annexin V/PI method.

[2] = test system: SW872 cells; assay: Cell viability, Annexin V/PI assay; conditions: SW872 (Sarcoma); 48 hours; KPT-330 0.1-1.0 μM, CS 1-3 mM, single agent or combination
Procedure: as §1, §2, §3

[3] = test system: Karpas-299 cells; assay: Cell viability, Annexin V/PI assay; conditions: Karpas-299 (TCL); 48 hours; KPT-330 0.1-1.0 μM, CS 1-3 mM, single agent or combination
Procedure: as §1, §2, §3

[4] = test system: RPMI (MM cell line); assay: Cell viability, Annexin V/PI assay; conditions: 48 hours, KPT-330 0.1-1.0 μM, CS 1-3 mM, single agent or combination
Procedure: as §1, §2, §3

[5] = test system: OPM2 cells; assay: Cell viability, Annexin V/PI assay; conditions: OPM2 (MM); 48 hours; KPT-330 0.1-1.0 μM, CS 1-3 mM, single agent or combination
Procedure: as §1, §2, §3

[6] = test system: Xg1 cells; assay: Cell viability, Annexin V/PI assay; conditions: Xg1 (MM); 48 hours; KPT-330 0.1-1.0 μM, CS 1-3 mM, single agent or combination
Procedure: as §1, §2, §3

[7] = test system: U266 cells; assay: Cell viability, Annexin V/PI assay; conditions: U266 (MM); 48 hours; KPT-330 0.1-1.0 μM, CS 1-3 mM, single agent or combination
Procedure: as §1, §2, §3

[8] = test system: H1048 cells; assay: Cell viability, Annexin V/PI assay; conditions: H1048 (Small-cell lung cancer); 48 hours; KPT-330 0.1-1.0 μM, CS 1-3 mM, single agent or combination
Procedure: as §1, §2, §3

[9] = test system: H460 cells; assay: Cell viability, Annexin V/PI assay; conditions: H460 (Non-small cell lung cancer); 48 hours; KPT-330 0.1-1.0 μM, CS 1-3 mM, single agent or combination
Procedure: as §1, §2, §3

[10] = test system: FuJi cells; assay: Cell viability, Annexin V/PI assay; conditions: FuJi (Sarcoma); 48 hours; KPT-330 0.1-1.0 μM, CS 1-3 mM, single agent or combination
Procedure: as §1, §2, §3

[11] = test system: KMS2 cells; assay: Cell viability, Annexin V/PI assay; conditions: KMS2 (MM); 48 hours; KPT-330 0.1-1.0 μM, CS 1-3 mM, single agent or combination
Procedure: as §1, §2, §3

[12] = test system: OCI-Ly19 cells; assay: Cell viability, Annexin V/PI assay; conditions: OCI-Ly19 (DLBCL); 48 hours; KPT-330 0.1-1.0 μM, CS 1-3 mM, single agent or combination
Procedure: as §1, §2, §3

[13] = test system: HCC827 cells; assay: Cell viability, Annexin V/PI assay; conditions: HCC827 (Non-small cell lung cancer); 48 hours; KPT-330 0.1-1.0 μM, CS 1-3 mM, single agent or combination
Procedure: as §1, §2, §3

[14] = test system: Mino cells; assay: Cell viability, Annexin V/PI assay; conditions: Mino (MCL); 48 hours; KPT-330 0.1-1.0 μM, CS 1-3 mM, single agent or combination
Procedure: as §1, §2, §3

[15] = test system: OCI-Ly3 cells; assay: Cell viability, Annexin V/PI assay; conditions: OCI-Ly3 (DLBCL); 48 hours; KPT-330 0.1-1.0 μM, CS 1-3 mM, single agent or combination
Procedure: DMSO was used to substitute the drug in controls.
Apoptosis results were analyzed with BD CellQuest software.
Cell lines were cultured according to instruction.

[16] = test system: MCF7 cells; assay: Cell viability, Annexin V/PI assay; conditions: MCF7 (Breast cancer); 48 hours; KPT-330 0.1-1.0 μM, CS 1-3 mM, single agent or combination
Procedure: (§4) KPT-330 purchased from Selleckchem (cat no: S7252) was dissolved in DMSO while CS (Santa Cruz, Calif.S 2016-36-6), sodium salicylate (Sigma-Aldrich, cat no: S3007), acetyl salicylate (Sigma-Aldrich, cat no: CAS 50-78-2) was diluted in PBS. […] The concentration range of KPT-330 was 0.05-1.0 μM while CS was 1-3 mM were used for ex vivo treatment and incubation time ranged from 24 hours to 72 hours.

[17] = test system: JeKo-1 cells; assay: Mitotic index calculation; conditions: 48 hours, light microscopy
Procedure: Following the incubation of respective time periods, cytospin slides were prepared and stained with Hema 3 staining on the many factors protocol. Subsequently the mitotic index was calculated by the number of mitoses evaluated in 10 high power fields (×400).

[18] = test system: L3.6 cells; assay: Cell viability, Annexin V/PI assay; conditions: L3.6 (Pancreatic cancer); 48 hours; KPT-330 0.1-1.0 μM, CS 1-3 mM, single agent or combination
Procedure: as §4

Compound | % viability normalized for respective controls [1] | % viability normalized for respective controls [2] | % viability normalized for respective controls [3] | % viability normalized for respective controls [4] | % viability normalized for respective controls [5] | % viability normalized for respective controls [6] | % viability normalized for respective controls [7] | % viability normalized for respective controls [8] | % viability normalized for respective controls [9] | % viability normalized for respective controls [10] | % viability normalized for respective controls [11] | % viability normalized for respective controls [12] | % viability normalized for respective controls [13] | % viability normalized for respective controls [14] | % viability normalized for respective controls [15] | % viability normalized for respective controls [16] | mitotic index (MI) [17] | % viability normalized for respective controls [18]
C[N+](C)(C)CCO.O=C([O-])c1ccccc1O [CS, choline salicylate] | 100% | 88% | 80% | 85% | 98% | 95% | 93% | 92% | 105% | 85% | 83% | 88% | 90% | 86% | 84% | 87% | 166 /10 HPF | 72%
O=C(/C=C\n1cnc(-c2cc(C(F)(F)F)cc(C(F)(F)F)c2)n1)NNc1cnccn1 [KPT-330, (Z)-3-[3-[3,5-bis (trifluoromethyl)phenyl]-1,2,4-triazol-1-yl]-N′-pyrazin-2-ylprop-2-enehydrazide] | 91% | 82% | 88% | 87.5% | 82% | 76% | 75% | 81% | 93% | 93% | 79% | 57% | 78% | 89% | 85% | 98% | 153 /10 HPF | 61%
